Experimental data as given in article PMC3507590 (Diabetes Care, 2012).
Where two headings read alike, the source gives them in different places.

Legend:
[1] = system: IGF-1 receptor (IGF-1R); conditions: cited from earlier work; for affinity for IGF-1 receptor versus human insulin: as stated in the abstract
[2] = system: insulin receptors (IR); conditions: cited from earlier work
[3] = in vitro; cited from earlier work
[4] = system: malignant cell lines expressing primarily IGF-1R; conditions: cited from earlier work
[5] = system: insulin/IGF-1 hybrid receptors; conditions: in vitro; ref Pierre-Eugene et al., PLoS One 2012;7:e41992; cited from earlier work
[6] = for detectability / plasma concentration after s.c. glargine: any dose (0.3-1.2 units/kg), any time point 3-30 h, LLOQ 33 pmol/L
[7] = system: animals; conditions: in vivo in animals; cited from earlier work
[8] = acidic pH; precipitates amorphously upon s.c. injection; cited from earlier work
[9] = in vitro, 37°C, mass spectrometry; cited from earlier work
[10] = system: subjects with type 1 and type 2 diabetes; conditions: after multiple dosing; cited from earlier work
[11] = system: MCF-7 cells; conditions: ref Pierre-Eugene et al., PLoS One 2012;7:e41992; cited from earlier work

10^B-Asp-human insulin [X10, reference compound]
affinity for IGF-1R [1]: greater affinity | affinity for IR [2]: greater affinity

21^A-Gly-des-30^B-Thr-human insulin [M2]
affinity for IGF-1 receptor versus human insulin ([1]; in vitro): lower affinity | affinity for IGF-1R compared with glargine, and even with human insulin ([1]; in vitro): lower affinity | metabolic properties relative to human insulin [3]: fully retaining its metabolic properties | mitogenic potential in vitro compared with glargine, and even with human insulin [4]: lower mitogenic potential | potency for stimulation of insulin/IGF-1 hybrid receptors versus human insulin [5]: lower potency | time of first appearance in plasma ([6]; after s.c. glargine, associated with high M1 concentration): first appeared after 12 h

21^A-Gly-human insulin [M1]
affinity for IGF-1 receptor versus human insulin ([1]; in vitro): lower affinity | affinity for IGF-1R compared with glargine, and even with human insulin ([1]; in vitro): lower affinity | metabolic properties relative to human insulin [3]: fully retaining its metabolic properties | mitogenic potential in vitro compared with glargine, and even with human insulin [4]: lower mitogenic potential | potency for stimulation of insulin/IGF-1 hybrid receptors versus human insulin [5]: lower potency | time of maximum plasma concentrations after subcutaneous injection of glargine ([6]; M1 PK profile, doses 0.3, 0.6, 1.2 units/kg): ~12 h | plasma concentration by 30 h versus baseline ([6]; doses >0.3 units/kg): still elevated over baseline

31^B-Arg-32^B-Arg-human insulin [reference compound]
IGF-1R affinity compared with glargine ([1]; in vitro): even greater IGF-1R affinity

21^A-Gly-31^B-Arg-32^B-Arg-human insulin [glargine, reference compound]
tumor growth promotion [7]: does not promote tumor growth | affinity for IGF-1 receptor versus human insulin ([1]; in vitro): slightly higher affinity | binding affinity for IGF-1R compared with human insulin ([1]; in vitro): greater binding affinity | solubility [8]: Soluble at acidic pH | time for quantitative degradation into M1 in human serum [9]: ≤ 1 h | duration of action [10]: > 24 h | potency on DNA synthesis (mitogenic effects) compared with human insulin ([4]; in vitro, malignant cell lines expressing primarily IGF-1R): greater potency | proliferative/antiapoptotic effects versus human insulin [11]: greater proliferative/antiapoptotic effects | potency for stimulation of insulin/IGF-1 hybrid receptors versus human insulin [5]: higher potency | detectability / plasma concentration after s.c. glargine [6]: nearly always fall below LLOQ | detectability / plasma concentration after s.c. glargine ([6]; listed as Glargine): detectable in only one-third of subjects
